For one test, the target named is histone deacetylase 1 (Homo sapiens, UniProt Q13547). The note with it: Tauton et al. Science 272:408-411 (1996); cited from earlier work.
Test [1] deals with RhoB promoter. In words: RhoB promoter deletion/mutation constructs, induction by TPX. Type of test: cell-based. The note with it: following TPX treatment. The protocol:
(§1) Furthermore, mutations in this CCAAT box reduced the ability of HDAC1 to confer repression of RhoB promoter activity. In addition, chromatin immunoprecipitation assays reveal that TPX increased the level of chromatin acetylation in the TPX-responsive region of the RhoB promoter containing the inverted CCAAT box. […] The global gene expression profiles of A549 cells following inhibition of HDAC with LAQ824 were determined by DNA microarray analysis.

Test [2] deals with RhoB promoter. In words: Chromatin immunoprecipitation assays. It is filed as cell-based. The note with it: region containing the inverted CCAAT box. The protocol:
as §1

Another test relates to BID. The note with it: T cell leukemia cells; independently of caspase activity; cited from earlier work.

Square brackets hold non-standard residues; d marks the D form. Peptide text beside a SMILES is read from it. ξ: configuration not given here. Aoe(9ξ) = N[C@@H](CCCCCC(=O)C1CO1)C(=O)O; dPip = O=C(O)[C@H]1CCCCN1

histone deacetylase 1, sequence (Q13547 whole entry, species assumed): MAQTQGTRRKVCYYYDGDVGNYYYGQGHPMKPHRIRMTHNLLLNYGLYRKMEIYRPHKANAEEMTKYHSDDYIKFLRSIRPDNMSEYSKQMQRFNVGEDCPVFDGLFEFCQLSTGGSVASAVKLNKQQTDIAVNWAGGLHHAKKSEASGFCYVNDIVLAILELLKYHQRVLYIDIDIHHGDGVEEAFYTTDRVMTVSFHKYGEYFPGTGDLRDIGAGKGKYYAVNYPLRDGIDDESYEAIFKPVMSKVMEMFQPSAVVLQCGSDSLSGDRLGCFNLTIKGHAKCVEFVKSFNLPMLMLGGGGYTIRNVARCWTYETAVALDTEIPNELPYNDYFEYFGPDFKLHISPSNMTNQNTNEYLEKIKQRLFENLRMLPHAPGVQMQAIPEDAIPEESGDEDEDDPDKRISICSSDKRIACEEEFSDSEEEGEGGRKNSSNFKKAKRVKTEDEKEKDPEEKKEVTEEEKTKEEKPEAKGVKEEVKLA

As to `O=C(CCCCC[C@@H]1NC(=O)[C@H]2CCCCN2C(=O)[C@H](Cc2ccccc2)NC(=O)[C@H](Cc2ccccc2)NC1=O)C1CO1` (stereo partly shown) [TPX, trapoxin A] (cyclo(FF[dPip][Aoe(9ξ)])), at histone deacetylase 1, the “inhibition of histone deacetylase 1” value was “potently inhibit”. Besides, the “induction of expression from RhoB promoter deletion constructs” value with RhoB promoter [1] is “induction of expression from all of these deletions is similar”. For the same molecule, in the test with RhoB promoter [2], the “level of chromatin acetylation in the TPX-responsive region of the RhoB promoter” value is recorded as “increased”.

For `O=C(CCCCCCC(=O)Nc1ccccc1)NO` [SAHA], the BID cleavage entry with BID is “cleaved”.

Source of the values: patent publication US20070082339A1, “Methods and compositions for screening for HDAC inhibitory activity” (priority 2005, published 2007).
